Values of other authors as cited in patent US20110236881A1, “MODULATION OF INFLUENZA VIRUS” (priority 2008, published 2011).

Molecular target: full-length M2 (Influenza A virus, UniProt P0DOF5)
Settings: the protein binds a single drug molecule per tetramer

full-length M2, sequence (P0DOF5 whole entry): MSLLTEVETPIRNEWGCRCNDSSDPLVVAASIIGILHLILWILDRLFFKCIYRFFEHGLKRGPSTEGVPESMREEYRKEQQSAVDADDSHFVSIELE

NC12CC3CC(CC(C3)C1)C2 [amantadine]
cooperativity factor of inhibition of full-length M2: 1.0
